Assay results taken from the supplement of paper PMC11061612.

Legend:
Assay in all cases: combination Emax (second highest fraction inhibited in the dose matrix, 72 h); higher = more inhibition; extreme values may be limits of the assay
[1] = test system: Ca9-22 (Head and Neck Carcinoma)
How it was run: (§1)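 Cell lines in DMEM/F12 or RPMI with 10% FBS were plated in 1536-well plates, held 24 hours at 37°C, 5% CO2, then given two-drug dose matrices for 72 hours (DMSO typically 0.2%). Viability was read by CellTiter-Glo 2.0 luminescence and scaled as inhibition from 0 (vehicle wells) to 1 (blank wells). Combination Emax is the second-highest inhibition in the matrix; Bliss excess is observed combination effect minus expected EA + EB − EA·EB, EA and EB being single-agent effects.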

[2] = test system: D-263MG (Glioblastoma)
How it was run: as §1

[3] = test system: EFM-19 (Breast Carcinoma)
How it was run: as §1

[4] = test system: EW-24 (Ewing's Sarcoma)
How it was run: as §1

[5] = test system: EoL-1-cell (Acute Myeloid Leukemia)
How it was run: as §1

[6] = test system: HOP-62 (Lung Adenocarcinoma)
How it was run: as §1

[7] = test system: HSC-4 (Oral Cavity Carcinoma)
How it was run: as §1

[8] = test system: Hs-766T (Pancreatic Carcinoma)
How it was run: as §1

[9] = test system: KARPAS-299 (T-Cell Non-Hodgkin's Lymphoma)
How it was run: as §1

[10] = test system: NCI-H358 (Lung Adenocarcinoma)
How it was run: as §1

[11] = test system: NUGC-3 (Gastric Carcinoma)
How it was run: as §1

[12] = test system: OVCAR-4 (Ovarian Carcinoma)
How it was run: as §1

[13] = test system: PANC-04-03 (Pancreatic Carcinoma)
How it was run: as §1

[14] = test system: PWR-1E (Non-Cancerous)
How it was run: as §1

[15] = test system: SCC-15 (Oral Cavity Carcinoma)
How it was run: as §1

[16] = test system: SU8686 (Pancreatic Carcinoma)
How it was run: as §1

[17] = test system: TGW (Neuroblastoma)
How it was run: as §1

[18] = test system: TK10 (Kidney Carcinoma)
How it was run: as §1

[19] = test system: UACC-62 (Melanoma)
How it was run: as §1

[20] = test system: YH-13 (Glioblastoma)
How it was run: as §1

In the case of `CC1(C)CCC(CN2CCN(c3ccc(C(=O)NS(=O)(=O)c4ccc(NCC5CCOCC5)c([N+](=O)[O-])c4)c(Oc4cnc5[nH]ccc5c4)c3)CC2)=C(c2ccc(Cl)cc2)C1` [Venetoclax] + Cc1cc2ncnn2cc1Nc1ncc2c(n1)n(C1CCOCC1)c(=O)n2C [AZD7648] (first compound max 1 µM, 7x7, partner max 10 µM), the “combination Emax” value [1] was 0.128, the “combination Emax” value [2] was 0.179 and the “combination Emax” value [3] was 0.417. The “combination Emax” value [4] was 0.38, the “combination Emax” value [5] was 0.996 and the “combination Emax” value [6] was 0.172. For the same compound, the “combination Emax” value [7] was 0.11, the “combination Emax” value [8] was 0.372 and the “combination Emax” value [9] was 0.837. The “combination Emax” value [10] was 0.293, the “combination Emax” value [11] was 0.409 and the “combination Emax” value [12] was 0.19. For the same compound, the “combination Emax” value [13] was 0.286, the “combination Emax” value [14] was 0.164 and the “combination Emax” value [15] was 0.212. The “combination Emax” value [16] was 0.152, the “combination Emax” value [17] was 0.393 and the “combination Emax” value [18] was 0.281. The “combination Emax” value [19] was 0.221 and the “combination Emax” value [20] was 0.3.
